Test results from patent US9168288B2, “Methods for treating disorders of the gastrointestinal tract using a GLP-1 agonist” (Mount Sinai Hospital, priority 2010, dated 2015).

How the values were obtained:
Type in all cases: in vivo
[1] = system: wild-type female C57B1/6 mice on regular drinking water or 3% DSS; assay: Example 5: low dose Liraglutide (25 or 50 μg/kg BID s.c., one week), small intestine size, body weight, blood glucose; conditions: C57B1/6, regular water or 3% DSS
Description: All mice were 10-week old wild-type female mice on the C57B1/6 genetic background. Mice were maintained on a standard rodent chow diet and either regular drinking water or water supplemented with 3% DSS for a total of one week. Mice were given subcutaneous injections of either phosphate buffered saline (PBS), 25 μg/kg of Liraglutide (LG) BID, or 50 μg/kg of LG BID for one week. PBS or LG injections commenced at the same time that mice were started on normal drinking water or water supplemented with 3% DSS. Injections were administered using a 31 g insulin syringe with an 8 mm long needle and in a final volume that ranged between 85-110 μl. Body weights, food intake, and water intake were determined daily. […] Small intestines were removed and then suspended vertically with a 1 g weight attached to the distal portion of the small intestine (to provide uniform tension). Small intestine length was determined using a vertical ruler. Luminal contents were removed from the small bowel by flushing with ice-cold PBS using a 60 cc syringe attached to a p200 pipette tip. Mesenteric fat and pancreatic tissue were dissected away from the small intestine. The small intestine was blotted to remove excess PBS and then weighed. Statistical analyses were done by one-way ANOVA with Bonferroni's Multiple Comparison Post-Test using GraphPad Prism software (version 4).
All mice were 10-week old female wild-type mice on the C57B1/6 genetic background. Mice were maintained on a standard rodent chow diet and either regular drinking water or water supplemented with 3% DSS for a total of one week. Mice were given s.c. injections of either phosphate buffered saline (PBS), 25 μg/kg of Liraglutide (LG) BID, or 50 μg/kg of LG BID for one week. PBS or LG injections commenced at the same time that mice were started on normal drinking water or water supplemented with 3% DSS. Injections were administered using a 31 g insulin syringe with an 8 mm long needle and in a final volume that ranged between 85-110 μl. Body weights, food intake, and water intake were determined daily. Blood glucose levels were measured on the first day of the study and just prior to sacrifice. Statistical analyses were done by one-way ANOVA with Bonferroni's Multiple Comparison Post-Test using GraphPad Prism software (version 4). n=5 mice/group.

[2] = system: WT female mice on the C57B1/6 genetic background; assay: Example 3: efficacy of GLP-1 receptor agonists administered once per day (body weight, blood glucose, pancreas, small bowel, colon)
Description: All mice used in the study were 10-week old WT female mice on the C57B1/6 genetic background. The mice were maintained on regular drinking water and a standard rodent chow diet.
All injections were given once per day, and were administered ip using a 31 g insulin syringe with an 8 mm long needle in a final volume that ranged between 84-125 μl. The body weight and food intake were determined daily. Non-fasting blood glucose levels were measured using a hand-held glucometer on day 1 (prior to the first injection), day 8, and day 15 (day of sacrifice). […] The entire pancreas was removed and weighed. The entire small bowel was removed and then suspended vertically with a 1 g weight attached to the distal portion of the small bowel (to provide uniform tension). Small bowel length was determined using a vertical ruler and then flushed with ice-cold PBS, blotted dry and weighed. The entire colon was removed and colon length was determined by measuring with a ruler placed on a horizontal surface. The colon was then flushed with ice-cold PBS, blotted dry and weighed. All statistical analyses were done by one-way ANOVA with Bonferroni's Multiple Comparison Post-Test using GraphPad Prism software (version 4), n=4 mice/group.

[3] = system: female wild-type mice on the Balb/c genetic background; assay: Example 5: low dose Liraglutide (30 or 50 μg/kg BID s.c., one week), large intestine size and body weight, Balb/c mice; conditions: Liraglutide 30 μg/kg BID s.c. 7 days vs PBS
From the text: FIGS. 18A-18D illustrate that doses of Liraglutide lower than those that have shown glucose lowering or cardioprotective effects in rodents [Rolin B, et al, 2002; Noyan-Ashraf M H, et al, 2009; Porter D W et al, 2010; Irwin N et al, 2010; and Gault V A et al, 2011] are still able to increase large intestine size (large intestine weight and length) in wild-type mice compared to PBS-treated mice. FIGS. 18A-18D also illustrate that Liraglutide treatment can increase large intestine size (large intestine length and weight) in wild-type mice on the Balb/c genetic background compared to control-treated mice. All mice were 9-week old female wild-type mice on the Balb/c genetic background. All mice were maintained on a standard rodent chow diet and normal drinking water. Mice were given s.c. injections of either phosphate buffered saline (PBS), 30 μg/kg of Liraglutide (LG) BID, or 50 μg/kg of LG BID for one week. Injections were administered using a 31 g insulin syringe with an 8 mm long needle and in a final volume that ranged between 60-120 μl. Body weights and food intake were determined daily. […] The large intestine was removed and its length was determined by measuring with a ruler placed on a horizontal surface. Luminal contents were removed from the large intestine by flushing with ice-cold PBS using a 60 cc syringe attached to a p200 pipette tip. Mesenteric fat was dissected away from the large intestine. The large intestine was blotted to remove excess PBS and then weighed. Statistical analyses were done by one-way ANOVA with Bonferroni's Multiple Comparison Post-Test using GraphPad Prism software (version 4).
All mice were 9-week old female wild-type mice on the Balb/c genetic background. All mice were maintained on a standard rodent chow diet and normal drinking water. Mice were given s.c. injections of either phosphate buffered saline (PBS), 30 μg/kg of Liraglutide (LG) BID, or 50 μg/kg of LG BID for one week. […] Body weights and food intake were determined daily. […]

[4] = Liraglutide 25 μg/kg BID s.c. 7 days vs PBS, listed as 3% DSS/Liguratide
[5] = Liraglutide 25 μg/kg BID s.c. 7 days vs PBS, listed as liraglutide
[6] = Liraglutide 50 μg/kg BID s.c. 7 days vs PBS
[7] = Liraglutide 50 μg/kg BID s.c. 7 days vs PBS, listed as 3% DSS/Liguratide
[8] = Liraglutide 50 μg/kg BID s.c. 7 days vs PBS, listed as liraglutide
[9] = Liraglutide once a day ip for two weeks (LG qd 2, 75 μg/kg) vs PBS

## CCCCCCCCCCCCCCCC(=O)N[C@@H](CCC(=O)NCCCC[C@H](NC(=O)[C@H](C)NC(=O)[C@H](C)NC(=O)[C@H](CCC(N)=O)NC(=O)CNC(=O)[C@H](CCC(=O)O)NC(=O)[C@H](CC(C)C)NC(=O)[C@H](Cc1ccc(O)cc1)NC(=O)[C@H](CO)NC(=O)[C@H](CO)NC(=O)[C@@H](NC(=O)[C@H](CC(=O)O)NC(=O)[C@H](CO)NC(=O)[C@@H](NC(=O)[C@H](Cc1ccccc1)NC(=O)[C@@H](NC(=O)CNC(=O)[C@H](CCC(=O)O)NC(=O)[C@H](C)NC(=O)[C@@H](N)Cc1cnc[nH]1)[C@@H](C)O)[C@@H](C)O)C(C)C)C(=O)N[C@@H](CCC(=O)O)C(=O)N[C@@H](Cc1ccccc1)C(=O)N[C@H](C(=O)N[C@@H](C)C(=O)N[C@@H](Cc1c[nH]c2ccccc12)C(=O)N[C@@H](CC(C)C)C(=O)N[C@H](C(=O)N[C@@H](CCCNC(=N)N)C(=O)NCC(=O)N[C@@H](CCCNC(=N)N)C(=O)NCC(=O)O)C(C)C)[C@@H](C)CC)C(=O)O [Liraglutide]
[1]; Liraglutide 25 μg/kg BID s.c. 7 days vs PBS
  increase blood glucose (blood glucose level): no difference
[1]; [4]
  decrease body weight (final body weight): No
  increase blood glucose (blood glucose level): No
[1]; [5]
  decrease body weight (final body weight): no difference
  increase blood glucose (blood glucose level): no difference
[1]; [6]
  decrease body weight (final body weight): no difference
  increase blood glucose (blood glucose level): no difference
[1]; [7]
  decrease body weight (final body weight): No
  increase blood glucose (blood glucose level): No
[1]; [8]
  decrease body weight (final body weight): no difference
  increase blood glucose (blood glucose level): no difference
[2]; Liraglutide 75 μg/kg ip once a day for one week vs PBS
  non-fasting blood glucose levels: does not alter
[2]; Liraglutide 75 μg/kg ip once a day for two weeks vs PBS
  non-fasting blood glucose levels: significantly increased
[2]; Liraglutide 75 μg/kg ip once per day for 7 days (LG qd 1) vs PBS
  body weight: do not have a significant effect
[2]; Liraglutide 75 μg/kg ip once per day for 14 days (LG qd 2) vs PBS
  body weight: do not have a significant effect
[2]; [9]
  pancreas weight per gram of body weight: significantly increases
  total pancreas weight: significantly increases
[3]
  decrease body weight (final body weight): no difference
[3]; listed as 3% DSS/Liguratide
  decrease body weight (final body weight): No
[3]; listed as liraglutide
  decrease body weight (final body weight): no difference
